System: γ-secretase
Experiment: Cellular γ-secretase assay (inhibition of Aβ42 secretion, AlphaLisa)
Type: cell-based
Settings: human neuroglioma H4 cells overexpressing human APP695 Swedish double mutation, 24 hr compound incubation
Protocol: Cellular γ-Secretase Assay
Human neuroglioma H4 cells overexpressing human APP695 with the Swedish double mutation (K595N/M596L) were plated at 30,000 cells/well/100 μl in 96-well plates in IMDM media containing 10% FCS, 0.2 mg/l Hygromycin B and incubated at 37° C., 5% CO2.
3-4 hr post plating, compounds are a diluted in media and 50 μl is added as 1.5-fold concentrate to achieve the final concentration. Compound incubation is performed for 24 hr. Final doses typically range from 4 μm down to 0.0013 μm in half-log steps resulting in a eight point dose response curve.
Appropriate controls using vehicle only and reference compound were applied to this assay. The final concentration of Me2SO was 0.4%.
After incubation at 37° C., 5% CO2, the supernatant was subjected to quantification of secreted Aβ42 by the means of an AlphaLisa assay kit (Human Amyloid beta 1-42 Kit: Cat # AL203C, Perkin Elmer). 20 μl of the cell culture supernatant was transferred to an assay plate. Then 10 μl of a mixture of the AlphaLisa coupled capture antibody and the biotinylated detection antibody was added and incubated for 3 hours at room temperature while softly shaking the assay plate. After a further addition of 20 μl of the Donor beads the assay plate was incubated for 30 min at room temperature and constant shaking without exposure to direct light. The assay plate was then read on a Paradigm AlphaLisa Reader using the build-in program with excitation at 680 nm and emission at […].
The measured signals were then used to calculate IC50 values for inhibition of Aβ42 secretion by nonlinear regression fit analysis using XLfit 5.3 software (IDBS).

EC50 [nM] | Structure (SMILES)
9 | N#Cc1cc(Nc2nc3n(n2)CCCN3c2ccc(F)c(F)c2)ccc1-n1cnc(Cl)c1 [Example 24, 2-(4-chloroimidazol-1-yl)-5-[[4-(3,4-difluorophenyl)-6,7-dihydro-5H-[1,2,4]triazolo[1,5-a]pyrimidin-2-yl]amino]benzonitrile]
58.5 | COc1cc(Nc2nc3n(n2)CCCN3c2ccc(F)c(F)c2)ccc1-c1cc(C)n[nH]1 [Example 25, 4-(3,4-difluorophenyl)-N-[3-methoxy-4-(3-methyl-1H-pyrazol-5-yl)phenyl]-6,7-dihydro-5H-[1,2,4]triazolo[1,5-a]pyrimidin-2-amine]
23.8 | N#Cc1cc(Nc2nc3n(n2)CCCN3c2ccc(F)c(F)c2)ccc1-n1cnc(C(F)F)c1 [Example 26, 2[4-(difluoromethyl)imidazol-1-yl]-5-[[4-(3,4-difluorophenyl)-6,7-dihydro-5H-[1,2,4]triazolo[1,5-a]pyrimidin-2-yl]amino]benzonitrile]
20.2 | Cc1ncc(-c2ccc(Nc3nc4n(n3)CCCN4c3ccc(F)c(F)c3)cc2C#N)o1 [Example 27, 5-[[4-(3,4-difluorophenyl)-6,7-dihydro-5H-[1,2,4]triazolo[1,5-a]pyrimidin-2-yl]amino]-2-(2-methyloxazol-5-yl)benzonitrile]
137 | Fc1ccc(N2CCCn3nc(Nc4ccc(-n5cnc(Cl)c5)c(Cl)c4)nc32)cc1F [Example 28, N-[3-chloro-4-(4-chloroimidazol-1-yl)phenyl]-4-(3,4-difluorophenyl)-6,7-dihydro-5H-[1,2,4]triazolo[1,5-a]pyrimidin-2-amine]
56.1 | Cc1ncn(-c2ccc(Nc3nc4n(n3)CCCN4c3ccc(F)c(F)c3)cc2)n1 [Example 29, 4-(3,4-difluorophenyl)-N-[4-(3-methyl-1,2,4-triazol-1-yl)phenyl]-6,7-dihydro-5H-[1,2,4]triazolo[1,5-a]pyrimidin-2-amine]
25.1 | Cc1ncn(-c2ccc(Nc3nc4n(n3)CCCN4c3ccc(F)c(F)c3)cc2C#N)n1 [Example 30, 5-[[4-(3,4-difluorophenyl)-6,7-dihydro-5H-[1,2,4]triazolo[1,5-a]pyrimidin-2-yl]amino]-2-(3-methyl-1,2,4-triazol-1-yl)benzonitrile]
30.4 | COc1cc(Nc2nc3n(n2)CCCN3c2cccc(F)c2)ccc1-n1cnc(C)n1 [Example 31, 4-(3-fluorophenyl)-N-[3-methoxy-4-(3-methyl-1,2,4-triazol-1-yl)phenyl]-6,7-dihydro-5H-[1,2,4]triazolo[1,5-a]pyrimidin-2-amine]
14.1 | COc1cc(Nc2nc3n(n2)CCCN3c2cccc(F)c2)ccc1-n1cnc(Cl)c1 [Example 32, N-[4-(4-chloroimidazol-1-yl)-3-methoxy-phenyl]-4-(3-fluorophenyl)-6,7-dihydro-5H-[1,2,4]triazolo[1,5-a]pyrimidin-2-amine]
35.2 | COc1cc(Nc2nc3n(n2)CCCN3c2ccc(F)cc2)ccc1-n1cnc(C)n1 [Example 33, 4-(4-fluorophenyl)-N-[3-methoxy-4-(3-methyl-1,2,4-triazol-1-yl)phenyl]-6,7-dihydro-5H-[1,2,4]triazolo[1,5-a]pyrimidin-2-amine]
10 | COc1cc(Nc2nc3n(n2)CCCN3c2ccc(F)cc2)ccc1-n1cnc(Cl)c1 [Example 34, N-[4-(4-chloroimidazol-1-yl)-3-methoxy-phenyl]-4-(4-fluorophenyl)-6,7-dihydro-5H-[1,2,4]triazolo[1,5-a]pyrimidin-2-amine]
21 | N#Cc1cc(Nc2nc3n(n2)CCCN3c2ccc(F)cc2)ccc1-n1cnc(Cl)c1 [Example 35, 2-(4-chloroimidazol-1-yl)-5-[[4-(4-fluorophenyl)-6,7-dihydro-5H-[1,2,4]triazolo[1,5-a]pyrimidin-2-yl]amino]benzonitrile]
39.9 | Fc1ccc(N2CCCn3nc(Nc4ccc(-n5cnc(Cl)c5)c(F)c4)nc32)cc1 [Example 36, N-[4-(4-chloroimidazol-1-yl)-3-fluoro-phenyl]-4-(4-fluorophenyl)-6,7-dihydro-5H-[1,2,4]triazolo[1,5-a]pyrimidin-2-amine]
34.2 | Cc1ncn(-c2ccc(Nc3nc4n(n3)CCCN4c3ccc(F)cc3)cc2OC(F)F)n1 [Example 37, N-[3-(difluoromethoxy)-4-(3-methyl-1,2,4-triazol-1-yl)phenyl]-4-(4-fluorophenyl)-6,7-dihydro-5H-[1,2,4]triazolo[1,5-a]pyrimidin-2-amine]
13.8 | COc1cc(Nc2nc3n(n2)CCCN3c2ccc(F)cc2)cnc1-n1cnc(Cl)c1 [Example 38, N-[6-(4-chloroimidazol-1-yl)-5-methoxy-3-pyridyl]-4-(4-fluorophenyl)-6,7-dihydro-5H-[1,2,4]triazolo[1,5-a]pyrimidin-2-amine]
17.5 | Cc1ncc(-c2ncc(Nc3nc4n(n3)CCCN4c3ccc(F)cc3)cc2F)o1 [Example 39, N-[5-fluoro-6-(2-methyloxazol-5-yl)-3-pyridyl]-4-(4-fluorophenyl)-6,7-dihydro-5H-[1,2,4]triazolo[1,5-a]pyrimidin-2-amine]
20.3 | COc1cc(Nc2nc3n(n2)CCCN3c2ccc(F)c(F)c2)ccc1-n1cnc(F)c1 [Example 40, 4-(3,4-difluorophenyl)-N-[4-(4-fluoroimidazol-1-yl)-3-methoxy-phenyl]-6,7-dihydro-5H-[1,2,4]triazolo[1,5-a]pyrimidin-2-amine]
14.2 | COc1cc(Nc2nc3n(n2)CCCN3c2cc(F)cc(F)c2)ccc1-n1cnc(C)n1 [Example 41, 4-(3,5-difluorophenyl)-N-[3-methoxy-4-(3-methyl-1,2,4-triazol-1-yl)phenyl]-6,7-dihydro-5H-[1,2,4]triazolo[1,5-a]pyrimidin-2-amine]
7.4 | COc1cc(Nc2nc3n(n2)CCCN3c2cc(F)cc(F)c2)ccc1-n1cnc(Cl)c1 [Example 42, N-[4-(4-chloroimidazol-1-yl)-3-methoxy-phenyl]-4-(3,5-difluorophenyl)-6,7-dihydro-5H-[1,2,4]triazolo[1,5-a]pyrimidin-2-amine]
12.6 | COc1cc(Nc2nc3n(n2)CCCN3c2ccc(F)cc2)ccc1-c1cnc(C)o1 [Example 43, 4-(4-fluorophenyl)-N-[3-methoxy-4-(2-methyloxazol-5-yl)phenyl]-6,7-dihydro-5H-[1,2,4]triazolo[1,5-a]pyrimidin-2-amine]
65.4 | COc1cc(Nc2nc3n(n2)CCN3c2ccc(C(F)(F)F)cc2)ccc1-n1cnc(Cl)c1 [Example 44, N-[4-(4-chloroimidazol-1-yl)-3-methoxy-phenyl]-4-[4-(trifluoromethyl)phenyl]-5,6-dihydroimidazo[1,2-b][1,2,4]triazol-2-amine]
30 | COc1cc(Nc2nc3n(n2)CCN3c2ccc(F)c(F)c2F)ccc1-n1cnc(Cl)c1 [Example 45, N-[4-(4-chloroimidazol-1-yl)-3-methoxy-phenyl]-4-(2,3,4-trifluorophenyl)-5,6-dihydroimidazo[1,2-b][1,2,4]triazol-2-amine]
40.4 | COc1cc(Nc2nc3n(n2)CCN3c2ccc(F)c(F)c2)ccc1-n1cnc(Cl)c1 [Example 46, N-[4-(4-chloroimidazol-1-yl)-3-methoxy-phenyl]-4-(3,4-difluorophenyl)-5,6-dihydroimidazo[1,2-b][1,2,4]triazol-2-amine]
52.1 | Cc1cn(-c2ccc(Nc3nc4n(n3)CCCN4c3ccc(F)c(F)c3)cc2)nn1 [Example 47, 4-(3,4-difluorophenyl)-N-[4-(4-methyltriazol-1-yl)phenyl]-6,7-dihydro-5H-[1,2,4]triazolo[1,5-a]pyrimidin-2-amine]
94.7 | COc1cc(Nc2nc3n(n2)CCCN3c2ccccc2)ccc1-n1cnc(C)n1 [Example 48, N-[3-methoxy-4-(3-methyl-1,2,4-triazol-1-yl)phenyl]-4-phenyl-6,7-dihydro-5H-[1,2,4]triazolo[1,5-a]pyrimidin-2-amine]
